Measured values from PMC5632197 (Bioorganic & medicinal chemistry, 2017).
Entries after “also recorded” stand apart in the source; their conditions may differ. Where two headings read alike, the source gives them in different places.

Columns and labels:
[1] = target: T1, T. brucei AdoMetDC/prozyme (Trypanosoma brucei brucei, UniProt P50244); assay: T. brucei AdoMetDC enzyme activity assay; type: biochemical; settings: for fold less active against AdoMetDC compared to parent: compared to 1 (27 versus 11a), IC50 with PI
T1 sequence (P50244 86-370 limits assumed): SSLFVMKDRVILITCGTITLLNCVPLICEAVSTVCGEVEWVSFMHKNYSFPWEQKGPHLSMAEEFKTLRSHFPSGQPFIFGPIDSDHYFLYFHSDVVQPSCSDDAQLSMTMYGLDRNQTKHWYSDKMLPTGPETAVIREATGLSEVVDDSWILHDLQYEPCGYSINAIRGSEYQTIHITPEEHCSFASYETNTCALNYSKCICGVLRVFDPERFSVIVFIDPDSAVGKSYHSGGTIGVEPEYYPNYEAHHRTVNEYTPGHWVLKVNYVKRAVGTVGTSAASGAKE

[2] = tested on: T. brucei Lister 427 bloodstream-form cells; assay: T. brucei cell growth inhibition assay; type: cell-based, Trypanosoma brucei brucei
T. brucei = settings: 7-day 50 mg/kg/day intraperitoneal dosage; cited from earlier work
[3] = mice; cited from earlier work
CNS stage of HAT = settings: cited from earlier work
[4] = AdoMetDC IC50 with PI, with 30 min pre-incubation, triplicate
[5] = AdoMetDC IC50 without PI, without pre-incubation, triplicate

| SMILES | IC50 [1, 4] | IC50 [1, 5] | also measured |
| --- | --- | --- | --- |
| CC(C)Nc1ncnc2c1ncn2[C@@H]1O[C@H](CN(C)C/C=C\CN)[C@@H](O)[C@H]1O [Compound 28c] |  |  | fold less active against AdoMetDC compared to parent [1]: 3- to 4 fold |
| CN(C/C=C\CN)C[C@H]1O[C@@H](n2cnc3c(N(C)C)ncnc32)[C@H](O)[C@@H]1O [Compound 28b] |  |  | fold less active against AdoMetDC compared to parent [1]: ~ 20 fold |
| Cc1nc2c(N)ncnc2n1[C@@H]1O[C@H](CN(C/C=C\CN)CCO)[C@H]2OC(C)(C)O[C@H]21 [Compound 11d] | > 50 µM | > 50 µM |  |
| CCCCCCCCC(=O)Nc1ncnc2c1ncn2[C@@H]1O[C@H](CN(C)C/C=C\CN)[C@H]2OC(C)(C)O[C@H]21 [Compound 31] |  |  | fold more potent inhibition of AdoMetDC enzymatic activity than 11a ([1]; compared to comparator 11a): 3.5 fold; fold more potent inhibition of T.b. brucei proliferation than 11a ([2]; compared to comparator 11a): 2.6 fold |
| CNc1ncnc2c1ncn2[C@@H]1O[C@H](CN(C)C/C=C\CN)[C@@H](O)[C@H]1O [Compound 28a] |  |  | fold less active against AdoMetDC compared to parent [1]: 3- to 4 fold |
| Cc1nc2c(N)ncnc2n1[C@@H]1O[C@H](CN(C/C=C\CNC(=O)OC(C)(C)C)C2CC2)[C@H]2OC(C)(C)O[C@H]21 [Compound 10c] |  | > 50 µM |  |
| CN(C/C=C\CN)C[C@H]1O[C@@H](n2cnc3c(N)ncnc32)[C@@H]2OC(C)(C)O[C@@H]21 [Compound 11a] |  |  | fold less active against AdoMetDC compared to parent [1]: ~ 50 fold; fold reduced activity in T. b. brucei cell growth assay compared to 1 ([2]; EC50 compared to parent MDL 73811 (1)): ~ 50 fold |
| CN(C/C=C\CN)C[C@H]1O[C@@H](n2cnc3c(N)ncnc32)[C@H](O)[C@@H]1O [Compound 1, 5'-(((Z)-4-amino-2-butenyl)methylamino)-5'-deoxyadenosine] |  |  | cure of mice infected with T. brucei (T. brucei): sterile cure; brain-to-blood ratio [3]: 1.7%; cure in mouse model of the CNS stage of HAT (CNS stage of HAT): not efficacious; also recorded: neither compound led to a cure |
| Cc1nc2c(N)ncnc2n1[C@@H]1O[C@H](CN(C)C/C=C\CNC(=O)OC(C)(C)C)[C@H]2OC(C)(C)O[C@H]21 [Compound 10a] | > 50 µM | > 50 µM |  |
| CN(C/C=C\CN)C[C@H]1O[C@@H](n2cnc3cncnc32)[C@@H]2OC(C)(C)O[C@@H]21 [Compound 30] | > 50 µM | > 50 µM |  |
| CC(=O)NC/C=C\CN(C)C[C@H]1O[C@@H](n2cnc3c(N)ncnc32)[C@H](OC(C)=O)[C@@H]1OC(C)=O [Compound 6a] | > 50 µM | > 50 µM |  |
| Cc1nc2c(N)ncnc2n1[C@@H]1O[C@H](CN(C/C=C\CN)C2CC2)[C@@H](O)[C@H]1O [Compound 12c] | > 50 µM | > 50 µM |  |
| Cc1nc2c(N)ncnc2n1[C@@H]1O[C@H](CN(C/C=C\CN)C2CC2)[C@H]2OC(C)(C)O[C@H]21 [Compound 11c] | > 50 µM | > 50 µM |  |
| CNc1ncnc2c1ncn2[C@@H]1O[C@H](CN(C)C/C=C\CN)[C@H]2OC(C)(C)O[C@H]21 [Compound 27] |  | > 50 µM | fold less active against AdoMetDC compared to parent [1]: 3- to 4 fold |
| CC1(C)O[C@@H]2[C@H](O1)[C@@H](CN(C/C=C\CN)CCF)O[C@H]2n1cnc2c(N)ncnc21 [Compound 11b] | > 50 µM | > 50 µM |  |
| Cc1nc2c(N)ncnc2n1[C@@H]1O[C@H](CN(C)C/C=C\CNC(=O)OC(C)C)[C@@H](O)[C@H]1O [Compound 3c] | > 50 µM | > 50 µM |  |
| NC/C=C\CN(CCF)C[C@H]1O[C@@H](n2cnc3c(N)ncnc32)[C@H](O)[C@@H]1O [Compound 12b] |  | > 50 µM |  |
| CCCC(=O)NC/C=C\CN(C)C[C@H]1O[C@@H](n2cnc3c(N)ncnc32)[C@H](OC(C)=O)[C@@H]1OC(C)=O [Compound 6c] | > 50 µM | > 50 µM |  |
| CCOc1ncnc2c1ncn2[C@@H]1O[C@H](CN(C)C/C=C\CN)[C@@H](O)[C@H]1O [Compound 28d] |  |  | fold less active against AdoMetDC compared to parent [1]: ~16 fold |
| CCCC(=O)NC/C=C\CN(C)C[C@H]1O[C@@H](n2cnc3c(N)ncnc32)[C@H](O)[C@@H]1O [Compound 5c] | > 50 µM | > 50 µM |  |
| CN(CC=CCN)CC1OC(n2cnc3c(N)ncnc32)C2OC3(CCCCC3)OC12 (stereo not drawn) [Compound 22] |  |  | IC50 ([1]; read-out: AdoMetDC IC50, pre-incubation not stated): > 50 µM; EC50 ([2]; read-out: EC50 (T. b. brucei), 48 h cell viability, triplicate): > 25 µM |
| CCC(=O)NC/C=C\CN(C)C[C@H]1O[C@@H](n2cnc3c(N)ncnc32)[C@H](OC(C)=O)[C@@H]1OC(C)=O [Compound 6b] | > 50 µM | > 50 µM |  |
